Measured values as given in patent US20110166121A1 (LG LIFE SCIENCES LTD., priority 2008, published 2011).

Legend:
Human P2Y12 receptor = molecular target: T1, Human P2Y12 receptor (Homo sapiens, UniProt Q9H244); assay: Human P2Y12 receptor cell membrane binding assay with [3H] 2-Mes-ADP; conditions: 1 nM [3H] 2-Mes-ADP, membranes of HEK cells expressing P2Y12 receptor; read-out: Binding activity (IC50)
T1 construct: expressed in transfected cells; host or cells: HEK cells
Method in brief: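 Membranes from HEK cells expressing human P2Y12 were incubated with compound and 1 nM [3H]2-MeS-ADP for 1 h at room temperature. Bound radioactivity was collected by GF/B filtration.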

[1] = test system: Human platelet aggregation caused by ADP; assay: Inhibition of ADP-induced platelet aggregation (Mimic-human PRP); format: cell-based; conditions: 20 μM ADP, human platelet concentrate diluted with PPP, absorption at 595 nm
Method in brief: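 Human PRP diluted with PPP to 3–4×10^8 platelets/mL was preincubated 20 min at room temperature with compound (0.01–30 μM, DMSO), then stimulated with 20 μM ADP. Aggregation read as A595 increase at 3 min versus 0 and 20 μM ADP controls; Ki from sigmoidal non-linear regression.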

T1 sequence (Q9H244 whole entry): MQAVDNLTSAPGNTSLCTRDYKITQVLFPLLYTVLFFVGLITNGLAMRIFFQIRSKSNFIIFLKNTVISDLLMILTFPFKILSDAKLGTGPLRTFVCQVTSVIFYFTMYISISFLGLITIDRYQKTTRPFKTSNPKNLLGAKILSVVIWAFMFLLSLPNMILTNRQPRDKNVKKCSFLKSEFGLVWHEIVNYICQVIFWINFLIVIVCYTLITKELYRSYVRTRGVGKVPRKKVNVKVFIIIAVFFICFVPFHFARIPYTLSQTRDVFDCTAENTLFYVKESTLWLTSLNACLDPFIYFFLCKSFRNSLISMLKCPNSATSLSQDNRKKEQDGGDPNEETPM

CCCc1cc2c(N3CCn4c(nnc4C(F)(F)F)C3)nc(Sc3ncccn3)nc2s1 [Example 3-53, 7-[6-Propyl-2-(pyrimidin-2-ylsulfanyl)-thieno[2,3-d]pyrimidin-4-yl]-3-trifluoromethyl-5,6,7,8-tetrahydro-[1,2,4]triazolo[4,3-a]pyrazine]
IC50 (Human P2Y12 receptor): 570 nM
Ki [1]: 760 nM

CCCc1cc2c(N3CCn4c(nnc4C(F)(F)F)C3)nc(-c3nnc(CO)o3)nc2s1 [Example 4-36, {5-[6-Propyl-4-(3-trifluoromethyl-5,6-dihydro-8H-[1,2,4]triazolo[4,3-a]pyrazin-7-yl)thieno[2,3-d]pyrimidin-2-yl]-[1,3,4]oxadiazol-2-yl}methanol]
IC50 (Human P2Y12 receptor): 250 nM
Ki [1]: 300 nM

CCCc1cc2c(N3CCn4c(nnc4C(F)(F)F)C3)nc(NC3CNC3)nc2s1 [Example 1-83, Azetidin-3-yl-[6-propyl-4-(3-trifluoromethyl-5,6-dihydro-8H-[1,2,4]triazolo[4,3-a]pyrazin-7-yl)-thieno[2,3-d]pyrimidin-2-yl]-amine]
IC50 (Human P2Y12 receptor): 320 nM
Ki [1]: 7 nM

CCCc1cc2c(N3CCn4c(nnc4C(F)(F)F)C3)nc(OCCC(OC)OC)nc2s1 [Example 3-14, 7-[2-(3,3-Dimethoxy-propoxy)-6-propyl-thieno[2,3-d]pyrimidin-4-yl]-3-trifluoromethyl-5,6,7,8-tetrahydro-[1,2,4]triazolo[4,3-a]pyrazine]
IC50 (Human P2Y12 receptor): 240 nM
Ki [1]: 1100 nM

CCCc1cc2c(N3CCn4c(nnc4C(F)(F)F)C3)nc(OCCOC)nc2s1 [Example 3-4, 7-[2-(2-Methoxy-ethoxy)-6-propyl-thieno[2,3-d]pyrimidin-4-yl]-3-trifluoromethyl-5,6,7,8-tetrahydro-[1,2,4]triazolo[4,3-a]pyrazine]
IC50 (Human P2Y12 receptor): 170 nM
Ki [1]: 230 nM

CCCc1cc2c(N3CCn4c(nnc4C(F)(F)F)C3)nc(C(=O)N3CCC(O)C3)nc2s1 (stereo not shown) [Example 4-12, (3-Hydroxy-pyrrolidin-1-yl)-[6-propyl-4-(3-trifluoromethyl-5,6-dihydro-8H-[1,2,4]triazolo[4,3-a]pyrazin-7-yl)thieno[2,3-d]pyrimidin-2-yl]methanon]
IC50 (Human P2Y12 receptor): 1100 nM
Ki [1]: 95 nM

CCCc1cc2c(N3CCn4c(nnc4C(F)(F)F)C3)nc(C(=O)NCC(=O)O)nc2s1 [Example 4-9, {[6-Propyl-4-(3-trifluoromethyl-5,6-dihydro-8H-[1,2,4]triazolo[4,3-a]pyrazin-7-yl)thieno[2,3-d]pyrimidine-2-carbonyl]amino}acetic acid]
IC50 (Human P2Y12 receptor): 1100 nM
Ki [1]: 5100 nM

CCCc1cc2c(N3CCn4c(nnc4C(F)(F)F)C3)nc(COc3cccc(C(=O)O)c3)nc2s1 [Example 4-26, 3-[6-Propyl-4-(3-trifluoromethyl-5,6-dihydro-8H-[1,2,4]triazolo[4,3-a]pyrazin-7-yl)thieno[2,3-d]pyrimidin-2-ylmethoxy]benzoic acid]
IC50 (Human P2Y12 receptor): 160 nM
Ki [1]: 2100 nM

CCCc1cc2c(N3CCn4c(nnc4C(F)(F)F)C3)nc(N3CC[C@H](C(=O)OC(C)C)C3)nc2s1 [Example 1-58, (S)-1-[6-Propyl-4-(3-trifluoromethyl-5,6-dihydro-8H-[1,2,4]triazolo[4,3-a]pyrazin-7-yl)-thieno[2,3-d]pyrimidin-2-yl]-pyrrolidine-3-carboxylic acid isopropyl ester]
IC50 (Human P2Y12 receptor): 190 nM
Ki [1]: 700 nM

CCc1cc2c(N3CCn4c(C)nnc4C3)nc(N3CCNC(=O)C3)nc2s1 [Example 6-12, 4-[6-Ethyl-4-(3-methyl-5,6-dihydro-8H-[1,2,4]triazolo[4,3-a]pyrazin-7-yl)-thieno[2,3-d]pyrimidin-2-yl]-piperazin-2-one]
IC50 (Human P2Y12 receptor): 760 nM
Ki [1]: 809 nM

CCCc1cc2c(N3CCn4c(nnc4C(F)(F)F)C3)nc(C(=O)NCc3ccccc3)nc2s1 [Example 4-17, 6-Propyl-4-(3-trifluoromethyl-5,6-dihydro-8H-[1,2,4]triazolo[4,3-a]pyrazin-7-yl)thieno[2,3-d]pyrimidine-2-carboxylic acid benzylamide]
IC50 (Human P2Y12 receptor): 210 nM
Ki [1]: 1600 nM

CCCc1cc2c(N3CCn4c(nnc4C(F)(F)F)C3)nc(OCCNC(=O)CCCS(N)(=O)=O)nc2s1 [Example 3-67, N-{2-[6-Propyl-4-(3-trifluoromethyl-5,6-dihydro-8H-[1,2,4]triazolo[4,3-a]pyrazin-7-yl)-thieno[2,3-d]pyrimidin-2-yloxy]-ethyl}-4-sulfamoyl-butyramide]
IC50 (Human P2Y12 receptor): 90 nM
Ki [1]: 17 nM

CCCc1cc2c(N3CCn4c(nnc4C(F)(F)F)C3)nc(N3CCCC(N)C3)nc2s1 (stereo not shown) [Example 1-70, 1-[6-Propyl-4-(3-trifluoromethyl-5,6-dihydro-8H-[1,2,4]triazolo[4,3-a]pyrazin-7-yl)-thieno[2,3-d]pyrimidin-2-yl]-piperidin-3-ylamine]
IC50 (Human P2Y12 receptor): 167 nM
Ki [1]: 110 nM

CCCc1cc2c(N3CCn4c(nnc4C(F)(F)F)C3)nc(Oc3cccnc3)nc2s1 [Example 3-29, 7-[6-Propyl-2-(pyridin-3-yloxy)-thieno[2,3-d]pyrimidin-4-yl]-3-trifluoromethyl-5,6,7,8-tetrahydro-[1,2,4]triazolo[4,3-a]pyrazine]
IC50 (Human P2Y12 receptor): 220 nM
Ki [1]: 150 nM

CCCc1cc2c(N3CCn4c(nnc4C(F)(F)F)C3)nc(C(=O)NCCC(=O)OCC)nc2s1 [Example 4-6, 3-{[6-Propyl-4-(3-trifluoromethyl-5,6-dihydro-8H-[1,2,4]triazolo[4,3-a]pyrazin-7-yl)thieno[2,3-d]pyrimidine-2-carbonyl]amino}propionic acid ethyl ester]
IC50 (Human P2Y12 receptor): 2890 nM
Ki [1]: 1200 nM

CCCc1cc2c(N3CCn4c(nnc4C(F)(F)F)C3)nc(OCCO)nc2s1 [Example 3-3, 2-[6-Propyl-4-(3-trifluoromethyl-5,6-dihydro-8H-[1,2,4]triazolo[4,3-a]pyrazin-7-yl)-thieno[2,3-d]pyrimidin-2-yloxy]-ethanol]
IC50 (Human P2Y12 receptor): 113 nM
Ki [1]: 30 nM

CCCc1cc2c(N3CCn4c(nnc4C(F)(F)F)C3)nc(N3CC[C@H](NC(=O)CC(F)(F)F)C3)nc2s1 [Example 1-104, 3,3,3-Trifluoro-N-{(S)-1-[6-propyl-4-(3-trifluoromethyl-5,6-dihydro-8H-[1,2,4]triazolo[4,3-a]pyrazin-7-yl)-thieno[2,3-d]pyrimidin-2-yl]-pyrrolidin-3-yl}-propionamide]
IC50 (Human P2Y12 receptor): 80 nM
Ki [1]: 86 nM

CCCc1cc2c(N3CCn4c(nnc4C(F)(F)F)C3)nc(NC3CCNC3)nc2s1 (stereo not shown) [Example 1-98, [6-Propyl-4-(3-trifluoromethyl-5,6-dihydro-8H-[1,2,4]triazolo[4,3-a]pyrazin-7-yl)-thieno[2,3-d]pyrimidin-2-yl]-pyrrolidin-3-yl-amine]
IC50 (Human P2Y12 receptor): 470 nM
Ki [1]: 32 nM

CCCc1cc2c(N3CCn4c(nnc4C(F)(F)F)C3)nc(NCCC(=O)OCC)nc2s1 [Example 1-43, 3-[6-Propyl-4-(3-trifluoromethyl-5,6-dihydro-8H-[1,2,4]triazolo[4,3-a]pyrazin-7-yl)-thieno[2,3-d]pyrimidin-2-ylamino]-propionic acid ethyl ester]
IC50 (Human P2Y12 receptor): 134 nM
Ki [1]: 670 nM

CCCc1cc2c(N3CCn4c(nnc4C(F)(F)F)C3)nc(Oc3ccccn3)nc2s1 [Example 3-36, 7-[6-Propyl-2-(pyridin-2-yloxy)-thieno[2,3-d]pyrimidin-4-yl]-3-trifluoromethyl-5,6,7,8-tetrahydro-[1,2,4]triazolo[4,3-a]pyrazine]
IC50 (Human P2Y12 receptor): 260 nM
Ki [1]: 940 nM
